Test results: the NIST ThermoML archive (doi:10.1016/j.jct.2017.12.002)
± gives the expanded uncertainty stated by the source.

Columns and labels:
[1] = refractive index (Na D-line) (dimensionless); conditions: 101.33 kPa, Liquid, Standard Abbe refractometry
[2] = 101.33 kPa, Liquid, Vibrating tube method

| refractive index ([1]; 293.15 K) | refractive index ([1]; 298.15 K) | mass density ([2]; 293.15 K) | mass density ([2]; 295.15 K) | mass density ([2]; 297.15 K) | mass density ([2]; 298.15 K) | mass density ([2]; 298.6 K) | mass density ([2]; 301.35 K) | SMILES |
| --- | --- | --- | --- | --- | --- | --- | --- | --- |
| 1.37654 ± 0.00041 | 1.37387 ± 0.00041 | 664.225 ± 0.17 kg/m3 | 662.39 ± 0.18 kg/m3 | 660.589 ± 0.17 kg/m3 | 659.736 ± 0.18 kg/m3 | 659.308 ± 0.18 kg/m3 | – | CCC(C)CC [3-methylpentane] |
| 1.38796 ± 0.00041 | 1.3851 ± 0.00041 | 673.227 ± 0.17 kg/m3 | 670.871 ± 0.17 kg/m3 | 668.986 ± 0.17 kg/m3 | 668.033 ± 0.17 kg/m3 | – | 664.998 ± 0.17 kg/m3 | C=CCCCC [hex-1-ene] |
